Experimental data published in patent publication US20250025411A1, “READILY SOLUBLE AND THERMOSTABLE GLUCAGON FORMULATIONS AND DELIVERY FOR MINI-DOSING AND CLOSED -LOOP PROPHYLACTIC TREATMENT OF HYPOGLYCEMIA” (Massachusetts Institute of Technology, priority 2023, published 2025).

Assay: High throughput screening of water-soluble solid excipients for glucagon dissolution
Format: physicochemical
Details: for Fold change vs. PBS Avg.: 30-minute incubation in pH 7.4 PBS containing 1 mg/mL excipient; for Fold change vs. PBS Avg. / Glucagon concentration Avg.: 37° C.; for Glucagon concentration Avg.: solubilized glucagon after 30-minute incubation of lyophilized glucagon in pH 7.4 PBS containing 1 mg/mL excipient; for enhancement of glucagon dissolution (statistical significance compared to no excipient): 30-minute incubation in pH 7.4 PBS at 37° C.

Compound	Fold change vs. PBS Avg. [fold]	Glucagon concentration Avg. [mg/mL]	other results
OCCN(CCO)C(CO)(CO)CO [BIS-TRIS]	1.67	0.36	
Betadex Sulfobutyl Ether Sodium	1.56	0.34	
Sodium deoxycholate	1.75	0.38	
O=C([O-])[C@H](O)[C@@H](O)[C@H](O)[C@H](O)CO.[Na+] [Sodium Gluconate]	0.69	0.15	
Cl.N[C@@H](CS)C(=O)O [L-Cysteine hydrochloride]	0.93	0.20	
Bovine serum albumin	2.86	0.62	
OC[C@H]1O[C@@H]2O[C@H]3[C@H](O)[C@@H](O)[C@@H](O[C@H]4[C@H](O)[C@@H](O)[C@@H](O[C@H]5[C@H](O)[C@@H](O)[C@@H](O[C@H]6[C@H](O)[C@@H](O)[C@@H](O[C@H]7[C@H](O)[C@@H](O)[C@@H](O[C@H]8[C@H](O)[C@@H](O)[C@@H](O[C@H]1[C@H](O)[C@H]2O)O[C@@H]8CO)O[C@@H]7CO)O[C@@H]6CO)O[C@@H]5CO)O[C@@H]4CO)O[C@@H]3CO [B-Cyclodextrin]	1.40	0.30	
O=C([O-])c1ccccc1O.[Na+] [Sodium Salicylate]	1.84	0.40	
O=C(CO)[C@@H](O)[C@H](O)[C@H](O)CO [D-(−)-Fructose]	1.09	0.23	
O=S([O-])S(=O)[O-].[Na+].[Na+] [Sodium Dithionite]	2.25	0.49	
NC(=O)CNCCS(=O)(=O)O [ACES]	1.12	0.24	
NCCCC[C@H](N)C(=O)O [L-lysine]	2.84	0.61	
O=C([O-])[C@H](O)[C@@H](O)[C@H](O)[C@H](O)CO.[K+] [Potassium Gluconate]	1.61	0.35	
C[N+](C)(C)CC(=O)O [Betaine]	1.11	0.24	
O=S(=O)([O-])CCC[P+](c1ccccc1)(c1ccccc1)c1ccccc1 [3-(Triphenylphosphonio)propane-1-sulfonate]	1.21	0.26	
N[C@@H](CS)C(=O)O [L-Cysteine]	0.60	0.13	
[Cl-].[K+] [Potassium chloride]	1.89	0.41	
O=C(O)c1ccccc1 [Benzoic acid]	15.09	3.25	enhancement of glucagon dissolution (statistical significance compared to no excipient): successfully enhanced the dissolution of glucagon
O=C[C@H](O)[C@@H](O)[C@H](O)[C@H](O)CO [D-glucose]	1.08	0.23	
O=S([O-])S(=O)(=O)[O-].[K+].[K+] [Potassium Metabisulfite]	2.13	0.46	
O=S(=O)(O)CCCN1CCN(CCO)CC1 [EPPS]	0.79	0.17	
NC(=O)C[C@H](N)C(=O)O.O [Asparagine monohydrate]	1.55	0.33	
NC(=O)CN(CC(=O)O)CC(=O)O [ADA]	0.26	0.06	
OC[C@H]1O[C@@H]2O[C@H]3[C@H](O)[C@@H](O)[C@@H](O[C@H]4[C@H](O)[C@@H](O)[C@@H](O[C@H]5[C@H](O)[C@@H](O)[C@@H](O[C@H]6[C@H](O)[C@@H](O)[C@@H](O[C@H]7[C@H](O)[C@@H](O)[C@@H](O[C@H]1[C@H](O)[C@H]2O)O[C@@H]7CO)O[C@@H]6CO)O[C@@H]5CO)O[C@@H]4CO)O[C@@H]3CO [Alpha cyclodextrin]	0.55	0.12	

More lines, main results first:

Fold change vs. PBS Avg. [fold]	Glucagon concentration Avg. [mg/mL]	Compound	other results
1.35	0.29	O=C(O)[C@H](O)[C@@H](O)[C@H](O[C@@H]1O[C@H](CO)[C@H](O)[C@H](O)[C@H]1O)[C@H](O)CO [Lactobionic Acid]	
1.32	0.28	CC(C)C[C@H](N)C(=O)O [L-leucine]	
1.95	0.42	O=C(O)CN(CCN(CC(=O)O)CC(=O)O)CCN(CC(=O)O)CC(=O)O [Pentetic Acid]	
1.74	0.37	CC(O)COC[C@H]1O[C@@H]2O[C@H]3[C@H](O)[C@@H](O)[C@@H](O[C@H]4[C@H](O)[C@@H](O)[C@@H](O[C@H]5[C@H](O)[C@@H](O)[C@@H](O[C@H]6[C@H](O)[C@@H](O)[C@@H](O[C@H]7[C@H](O)[C@@H](O)[C@@H](O[C@H]8[C@H](O)[C@@H](O)[C@@H](O[C@H]1[C@H](O)[C@H]2O)O[C@@H]8COCC(C)O)O[C@@H]7COCC(C)O)O[C@@H]6COCC(C)O)O[C@@H]5COCC(C)O)O[C@@H]4COCC(C)O)O[C@@H]3COCC(C)O (stereo partly drawn) [Hydroxypropyl Betadex]	
5.33	1.15	CCCCCCCCCCCCCC[N+](C)(C)CCCS(=O)(=O)[O-] [Myristyl sulfobetaine]	enhancement of glucagon dissolution (statistical significance compared to no excipient): successfully enhanced the dissolution of glucagon; enhancement of solution glucagon concentration compared to unformulated glucagon (pH 7.4 PBS): up to 500%
1.27	0.27	Methyl-B-Cyclodextrin	
1.81	0.39	CSCC[C@H](N)C(=O)O [Methionine]	
1.75	0.38	O=S(=O)(O)CCNC(CO)(CO)CO [TES]	
	1.32	CNC[C@H](O)[C@@H](O)[C@H](O)[C@H](O)CO [Meglumine]	
2.38	0.51	O=C(O)C(S)C(S)C(=O)O (stereo not drawn) [Dimercaptosuccinic acid]	
1.52	0.33	O=C[C@H](O)[C@@H](O)[C@@H](O)CO [L-(+)-Arabinose]	
0.80	0.17	O=S(=O)(O)CCCN1CCOCC1 [MOPS]	
3.11	0.67	O=C(O)CN(CCOCCOCCN(CC(=O)O)CC(=O)O)CC(=O)O [EGTA]	
1.42	0.31	CC(C)(S)[C@@H](N)C(=O)O [D-Penicillamine]	
0.08	0.02	O=C(OC[C@H]1O[C@@H](OC(=O)c2cc(O)c(O)c(OC(=O)c3cc(O)c(O)c(O)c3)c2)[C@H](OC(=O)c2cc(O)c(O)c(OC(=O)c3cc(O)c(O)c(O)c3)c2)[C@@H](OC(=O)c2cc(O)c(O)c(OC(=O)c3cc(O)c(O)c(O)c3)c2)[C@@H]1OC(=O)c1cc(O)c(O)c(OC(=O)c2cc(O)c(O)c(O)c2)c1)c1cc(O)c(O)c(OC(=O)c2cc(O)c(O)c(O)c2)c1 [Tannic Acid]	
1.98	0.43	Nc1nc2ncc(CNc3ccc(C(=O)N[C@@H](CCC(=O)O)C(=O)O)cc3)nc2c(=O)[nH]1 [Folic acid]	
1.11	0.24	NCCS(=O)(=O)O [Taurine]	
1.83	0.39	CC(C)(O)C(Cl)(Cl)Cl [Chlorobutanol Hemihydrate]	
1.55	0.33	OC[C@H]1O[C@H](O[C@H]2O[C@H](CO)[C@@H](O)[C@H](O)[C@H]2O)[C@H](O)[C@@H](O)[C@@H]1O [D-(+)-Trehalose]	
1.37	0.29	O=S(=O)(O)CC(O)CN1CCOCC1 (stereo not drawn) [MOPSO]	
2.57	0.55	N[C@@H](Cc1c[nH]cn1)C(=O)O [L-histidine]	Fold change vs. PBS Avg. (listed as L-Histidine): 1.41 fold; Glucagon concentration Avg. (listed as L-Histidine): 0.30 mg/mL
1.88	0.41	CC[C@H](C)[C@H](N)C(=O)O [Isoleucine]	
1.89	0.41	CC(C)[C@H](N)C(=O)O [Valine]	
0.34	0.07	O=C(O)/C=C\C(=O)O [Maleic Acid]	
1.17	0.25	NC(=O)c1cccnc1 [Niacinamide]	
3.87	0.83	NC(=O)CC[C@H](N)C(=O)O [L-Glutamine]	enhancement of glucagon dissolution (statistical significance compared to no excipient): successfully enhanced the dissolution of glucagon
1.32	0.28	OC[C@H]1O[C@@](CO)(O[C@H]2O[C@H](CO)[C@@H](O)[C@H](O)[C@H]2O)[C@@H](O)[C@@H]1O [Sucrose]	
2.49	0.54	OC[C@@H](O)[C@@H](O)[C@H](O)[C@H](O)CO [Mannitol]	
1.21	0.26	O=C1NS(=O)(=O)c2ccccc21.[Na] [Saccharin Sodium]	
